# Source: patent US20090093469A1, “Phenylaminopropanol Derivatives and Methods of Their Use” (WYETH, priority 2004, published 2009)
# Counter-ions that a name gives are not always drawn.
# Biological target: T1, hNET (Homo sapiens, UniProt P23975)
# T1 construct: expressed in transfected cells
# Test: Norepinephrine (NE) uptake assay in MDCK-Net6 cells stably transfected with human hNET
# Format: cell-based
# Settings: MDCK-Net6, read-out: % Inhibition @ 1 μM (hNET)
# T1 sequence (P23975 whole entry): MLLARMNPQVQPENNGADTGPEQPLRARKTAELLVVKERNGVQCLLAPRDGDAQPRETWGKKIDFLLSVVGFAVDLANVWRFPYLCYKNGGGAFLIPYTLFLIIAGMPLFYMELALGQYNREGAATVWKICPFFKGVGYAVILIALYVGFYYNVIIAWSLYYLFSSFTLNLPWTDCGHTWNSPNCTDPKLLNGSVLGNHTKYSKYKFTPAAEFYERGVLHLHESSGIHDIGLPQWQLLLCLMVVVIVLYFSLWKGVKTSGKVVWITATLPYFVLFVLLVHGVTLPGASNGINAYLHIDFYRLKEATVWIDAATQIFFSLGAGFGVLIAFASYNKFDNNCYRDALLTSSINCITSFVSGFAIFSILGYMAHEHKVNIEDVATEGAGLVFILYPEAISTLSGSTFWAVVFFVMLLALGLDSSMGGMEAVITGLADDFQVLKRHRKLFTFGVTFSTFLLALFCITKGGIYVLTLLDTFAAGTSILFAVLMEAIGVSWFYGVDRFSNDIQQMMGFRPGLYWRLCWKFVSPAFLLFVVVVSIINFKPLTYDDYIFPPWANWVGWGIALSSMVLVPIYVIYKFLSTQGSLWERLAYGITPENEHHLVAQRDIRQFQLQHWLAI
row,SMILES,inhibition at 1 µM
1,"CNC[C@H](O)[C@H](c1cccc(F)c1)n1ccc2ccccc21 [Example 139, (1S,2S)-1-(3-fluorophenyl)-1-(1H-indol-1-yl)-3-(methylamino)propan-2-ol hydrochloride]",94.9%
2,"CCNC[C@H](O)[C@@H](c1ccccc1)n1cc(C)c2ccccc21 (racemic) [Example 12, (1RS,2SR)-3-(ethylamino)-1-(3-methyl-1H-indol-1-yl)-1-phenyl propan-2-ol hydrochloride]",70.6%
3,"CNC[C@@H](O)[C@H](c1cccc(F)c1)n1ccc2cccc(Br)c21 [Example 135, (1S,2R)-1-(7-bromo-1H-indol-1-yl)-1-(3-fluorophenyl)-3-(methylamino)propan-2-ol hydrochloride]",99.5%
4,"CNC[C@@H](O)[C@H](c1cccc(Cl)c1)n1ccc2ccccc21 [Example 33, (1S,2R)-1-(3-chlorophenyl)-1-(1H-indol-1-yl)-3-(methylamino)propan-2-ol hydrochloride]",99.4%
5,"CNC[C@@H](O)[C@H](c1ccccc1C)n1ccc2ccccc21 (single isomer, unassigned) [Example 53, hydrochloride]",57.4%
6,"CNC[C@@H](O)[C@H](c1cccc(F)c1)n1ccc2c(F)cccc21 [Example 184, (1S,2R)-1-(4-fluoro-1H-indol-1-yl)-1-(3-fluorophenyl)-3-(methylamino)propan-2-ol hydrochloride]",99.7%
7,"CCn1c(=O)n([C@@H](c2ccccc2)[C@H](O)CNC)c2c(F)cccc21 [Example 207, 1-Ethyl-4-fluoro-3-[(1S,2R)-2-hydroxy-3-(methylamino)-1-phenylpropyl]-1,3-dihydro-2H-benzimidazol-2-one hydrochloride]",98.3%
8,"CNC[C@@H](O)[C@H](c1ccccc1)n1c(=O)n(C(C)(C)C)c2ccccc21 [Example 192, 1-tert-Butyl-3-(2-hydroxy-3-methylamino-1-phenyl-propyl)-1,3-dihydro-benzoimidazol-2-one hydrochloride]",54.6%
9,"CCn1c(=O)n([C@@H](c2cccc(F)c2)[C@H](O)CNC)c2ccccc21 [Example 199, 1-Ethyl-3-[1-(3-fluoro-phenyl)-2-hydroxy-3-methylamino-propyl]-1,3-dihydro-benzimidazol-2-one hydrochloride]",99.1%
10,"CNC[C@@H](O)[C@H](c1ccccc1)n1c(=O)n(C2CCC2)c2ccccc21 [Example 197, 1-cyclobutyl-3-[(1S,2R)-2-hydroxy-3-(methylamino)-1-phenylpropyl]-1,3-dihydro-2H-benzimidazol-2-one hydrochloride]",97%
11,"CNC[C@@H](O)[C@H](c1cccc(F)c1)n1ccc2cccc(F)c21 [Example 183, (1S,2R)-1-(7-fluoro-1H-indol-1-yl)-1-(3-fluorophenyl)-3-(methylamino)propan-2-ol hydrochloride]",100%
12,"CNC[C@@H](O)[C@H](c1ccc(C)cc1)n1ccc2ccccc21 [Example 59, (1S,2R)-1-(1H-indol-1-yl)-3-(methylamino)-1-(4-methylphenyl)propan-2-ol hydrochloride]",93.2%
13,"CCn1c(=O)n([C@@H](c2cccc(F)c2)[C@H](O)CNC)c2c(F)cccc21 [Example 209, 1-Ethyl-4-fluoro-3-[(1S,2R)-2-hydroxy-3-(methylamino)-1-(3-fluorophenyl)-propyl]-1,3-dihydro-2H-benzimidazol-2-one hydrochloride]",99.3%
14,"CNC[C@@H](O)[C@@H](c1ccccc1)n1ccc2ccccc21 (racemic) [Example 16, (1RS,2RS)-1-(1H-indol-1-yl)-3-(methylamino)-1-phenylpropan-2-ol hydrochloride]",96.8%
15,"CNC[C@@H](O)[C@H](c1ccccc1)n1ccc2cc(Cl)ccc21 [Example 152, (1S,2R)-1-(5-chloro-1H-indol-1-yl)-3-(methylamino)-1-phenylpropan-2-ol hydrochloride]",96.2%

# Same assay, conditions: test compound 1 μM; [3H]NE uptake, MDCK-Net6 cells; read-out: % Inhibition @ 1 μM (hNET)
row,inhibition at 1 µM,SMILES
1,95.7%,"NCC[C@@H](O)[C@H](c1cccc(Cl)c1)n1ccc2ccccc21 [Example 42, (1S,2R)-4-amino-1-(3-chlorophenyl)-1-(1H-indol-1-yl)butan-2-ol hydrochloride]"
2,32.4%,"CNC[C@H](O)[C@@H](c1ccc(OC(F)(F)F)cc1)n1ccc2ccccc21 (single isomer, unassigned) [Example 41, hydrochloride]"
3,31.6%,"NC[C@H](O)[C@@H](c1ccccc1)n1ccc2cc(F)ccc21 (racemic) [Example 19, (1RS,2SR)-3-amino-1-(5-fluoro-1H-indol-1-yl)-1-phenylpropan-2-ol hydrochloride]"
4,79%,"CNC[C@@H](O)[C@H](c1ccccc1)N1C(=O)C(C)(C)c2cc(Br)ccc21 [Example 194, 5-bromo-1-[(1S,2R)-2-hydroxy-3-(methylamino)-1-phenylpropyl]-3,3-dimethyl-1,3-dihydro-2H-indol-2-one hydrochloride]"
5,21.4%,"CNC[C@H](O)[C@@H](c1ccccc1OC(F)(F)F)n1ccc2ccccc21 [Example 37, (1R,2S)-1-(1H-indol-1-yl)-3-(methylamino)-1-[2-(trifluoromethoxy)phenyl]propan-2-ol hydrochloride]"
6,97.4%,"CNC[C@@H](O)[C@H](c1ccccc1)n1cc(C)c2cccc(Cl)c21 [Example 122, (1S,2R)-1-(7-chloro-3-methyl-1H-indol-1-yl)-3-(methylamino)-1-phenylpropan-2-ol hydrochloride]"
7,96.1%,"CNC[C@@H](O)[C@H](c1ccccc1)n1cc(C(C)C)c2ccccc21 [Example 154, (1S,2R)-1-(3-isopropyl-1H-indol-1-yl)-3-(methylamino)-1-phenylpropan-2-ol hydrochloride]"
8,96.7%,"CNC[C@@H](O)[C@H](c1ccc(F)c(F)c1)n1ccc2ccccc21 [Example 140, (1S,2R)-1-(3,4-difluorophenyl)-1-(1H-indol-1-yl)-3-(methylamino)propan-2-ol hydrochloride]"
9,94.7%,"CNC[C@@H](O)[C@H](c1ccccc1)N1C(=O)C2(CC2)c2ccccc21 [Example 109, 1′-[(1S,2R)-2-hydroxy-3-(methylamino)-1-phenylpropyl]spiro-[cyclopropane-1,3′-indol]-2′(1′H)-one hydrochloride]"
10,92.9%,"CNC[C@@H](O)[C@H](c1ccccc1)n1ccc2cc(Br)ccc21 [Example 126, (1S,2R)-1-(5-bromo-1H-indol-1-yl)-3-(methylamino)-1-phenylpropan-2-ol hydrochloride]"
11,77.3%,"CNC[C@@H](O)[C@H](c1ccccc1)n1ccc2cccc(OC)c21 [Example 77, (1S,2R)-1-(7-methoxy-1H-indol-1-yl)-3-(methylamino)-1-phenylpropan-2-ol hydrochloride]"
12,57.4%,"CNC[C@@H](O)[C@H](c1ccc(OC(F)(F)F)cc1)n1ccc2ccccc21 (racemic) [Example 39, (1RS,2SR)-1-(1H-indol-1-yl)-3-(methylamino)-1-[4-(trifluoromethoxy)phenyl]propan-2-ol hydrochloride]"
13,99.8%,"CNC[C@@H](O)[C@H](c1ccccc1)n1cc(C)c2cccc(F)c21 [Example 179, (1S,2R)-1-(7-fluoro-3-methyl-1H-indol-1-yl)-3-(methylamino)-1-phenylpropan-2-ol hydrochloride]"
14,98.9%,"CNC[C@@H](O)[C@H](c1cccc(F)c1)n1cc(C(C)C)c2ccccc21 [Example 155, (1S,2R)-1-(3-fluorophenyl)-1-(3-isopropyl-1H-indol-1-yl)-3-(methylamino)propan-2-ol hydrochloride]"
15,17.6%,"O[C@@H](CN1CCOCC1)[C@@H](c1ccccc1)n1ccc2ccccc21 (racemic) [Example 3, (1RS,2SR)-1-(1H-indol-1-yl)-3-morpholin-4-yl-1-phenylpropan-2-ol hydrochloride]"

# The next lines start with the compound.
row,SMILES,inhibition at 1 µM
1,"CNC[C@@H](O)[C@H](c1cccc(F)c1)n1cc(-c2ccccc2F)c2ccccc21 [Example 114, (1S,2R)-1-(3-fluorophenyl)-1-[3-(2-fluorophenyl)-1H-indol-1-yl]-3-(methylamino)propan-2-ol hydrochloride]",100%
2,"CN1CCN(C[C@@H](O)[C@H](c2cccc(F)c2)n2ccc3ccccc32)CC1 [Example 58, (1S,2R)-1-(3-fluorophenyl)-1-(1H-indol-1-yl)-3-(4-methylpiperazin-1-yl)propan-2-ol dihydrochloride]",26.5%
3,"CNC[C@@H](O)[C@H](c1cccc(F)c1)n1cc(-c2cccc(C)c2)c2ccccc21 [Example 48, (1S,2R)-1-(3-fluorophenyl)-3-(methylamino)-1-[3-(3-methylphenyl)-1H-indol-1-yl]propan-2-ol hydrochloride]",96.6%
4,"CNC[C@@H](O)[C@H](c1cccc(F)c1)n1cc(C(C)(C)C)c2ccccc21 [Example 189, (1S,2R)-1-(3-tert-butyl-1H-indol-1-yl)-1-(3-fluorophenyl)-3-(methylamino)propan-2-ol]",99.3%
5,"CNC[C@@H](O)[C@H](c1cccc(F)c1)N1C(=O)C(C)(C)c2ccccc21 [Example 210, 1-[(1S,2R)-1-(3-fluorophenyl)-2-hydroxy-3-(methylamino)propyl]-3,3-dimethyl-1,3-dihydro-2H-indol-2-one hydrochloride]",96.3%
6,"CNC[C@@H](OC)[C@H](c1ccccc1)n1cc(C)c2cc(Cl)ccc21 [Example 121, [(2R,3S)-3-(5-chloro-3-methyl-1H-indol-1-yl)-2-methoxy-3-phenylpropyl]methylamine]",21.2%

# Same assay, conditions: test compound 10 μM (stated in cell); [3H]NE uptake, MDCK-Net6 cells
row,inhibition at 10 µM,SMILES
1,66.5%,"CN1CCN(C[C@H](O)[C@@H](c2ccccc2)n2ccc3cc(F)ccc32)CC1 (racemic) [Example 2, (1RS,2SR)-1-(5-fluoro-1H-indol-1-yl)-3-(4-methylpiperazin-1-yl)-1-phenylpropan-2-ol dihydrochloride]"
